The subject of data set [1] is rat model of Parkinson's disease. On the procedure: Symptoms of the Parkinson's disease, particularly muscle rigidity during flexion and extension movements in the ankle joint, were induced with reserpine (2.5 mg/kg, i.p.) and a-methyl-tyrosine (α-MT, 250 mg/kg, i.p.) administered at a 16-h interval. Afterwards, 3′-O-methyl-N-oleoyl-dopamine (O-Me-OLDA) was administered at a dose of 10 mg/kg and the muscular tone was measured using electromyographic (EMG) techniques. The control groups consisted of a) only vehiculum-treated animals in which no symptoms of Parkinson's disease were induced (control), b) animals who received only 3′-O-methyl-N-oleoyl-dopamine (O-Me-OLDA) and c) animals in which symptoms of Parkinson's disease were induced (reserpine+α-MT), but no other treatment was introduced.
This method is a pharmacological tool for modeling the typical, dopamine-deficiency-related brain symptoms of Parkinson's disease in rats.

The next data set concerns awake Wistar rats. Put plainly: Respiration in normoxia and hypoxia in the awake rat (plethysmographic chamber). In kind it is in vivo. As to conditions: for minute lung ventilation after administration of haloperidol and N-oleoyl-dopamine: haloperidol 0.9 mg/kg i.p. prior to N-oleoyl-dopamine 40 mg/kg i.p. The protocol: The study was performed in awake Wistar rats in a computerized plethysmographic chamber for small rodents. Respiratory frequency, tidal volume and pulmonary ventilation were measured. The experimental protocol included recordings in normoxia (breathing with atmospheric air), two levels of hypoxic stimulus (8% and 12% O2 in N2), intraperitoneal (i.p.) administration of N-oleoyl-dopamine (in a dose of 40 mg/kg) and repeated recordings for both normoxic and hypoxic states. Additionally, further experiments with the dopamine receptor antagonist haloperidol (in a dose of 0.9 mg/kg, i.p.) were performed. In those experiments, haloperidol was administered prior to N-oleoyl-dopamine and the recordings according the above-mentioned protocol were repeated.
The study was performed in awake Wistar rats in a computerized plethysmographic chamber for small rodents. Respiratory frequency, tidal volume and pulmonary ventilation were measured. The experimental protocol included recordings for normoxia (breathing with atmospheric air), for two levels of hypoxic stimulus (8% and 12% O2 in N2), intraperitoneal (i.p.) administration of 3′-O-methyl-N-oleoyl-dopamine (in a dose of 40 mg/kg), and then repeated recordings for both normoxic and hypoxic states.

Data set [2] deals with T1, catechol-O-methyltransferase (Homo sapiens, UniProt P21964).
T1 sequence (P21964 1-271): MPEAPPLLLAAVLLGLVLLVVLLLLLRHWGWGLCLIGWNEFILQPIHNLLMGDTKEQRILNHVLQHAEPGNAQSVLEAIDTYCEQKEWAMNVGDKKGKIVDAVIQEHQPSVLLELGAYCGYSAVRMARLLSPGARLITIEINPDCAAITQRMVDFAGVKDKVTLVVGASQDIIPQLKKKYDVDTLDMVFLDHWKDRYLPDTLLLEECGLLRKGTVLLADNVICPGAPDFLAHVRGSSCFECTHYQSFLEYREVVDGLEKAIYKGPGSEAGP
Put plainly: O-methylation by catechol-O-methyltransferase in vitro. In kind it is in vitro ADME. As to conditions: PBS pH=8, 10 mM magnesium ions, S-adenosyl-L-methionine, one hour at 37° C. On the procedure: N-oleoyl-dopamine underwent the reaction of methylation with the catechol-O-methyltransferase in PBS buffer pH=8 with 10 mM magnesium ions as the co-factor and S-adenosyl-L-methionine as the donor of methyl groups. The reaction was conducted for one hour at 37° C. After the termination of the reaction, the reaction mixture was extracted with chloroform to obtain an organic and an aqueous phase. Both phases were analyzed using UV/VIS spectrophotometry and high performance liquid chromatography with mass detection (HPLC/MS). It was shown that the organic phase contained both N-oleoyl-dopamine and 3′-O-methyl-N-oleoyl-dopamine (the substrate and the product of the reaction, respectively), and the aqueous phase S-adenosyl-L-methionine and its demethylated derivative, S-adenosyl-L-homocystein (the substrate and the product of the reaction, respectively). The obtained results were additionally confirmed with the mass spectrometry (MS).

In data set [3] the test system is membrane system of the rat brain. As to the kind of experiment: Binding to the rat brain membrane system after intraperitoneal administration (TLC of brain lipids). The data set is classed as in vivo, Wistar rats. As to conditions: 20 mg/kg intraperitoneal. The protocol:
N-oleoyl-dopamine was administered to Wistar rats at a dose of 20 mg/kg. After 1, 2, 3 or 24 hours the rat was sacrificed and the brain was resected. From the tissue, the whole lipid fraction, containing all lipids of the brain and the membrane fraction of the rat brain were obtained. Total lipids were obtained by homogenization of the brain in a mixture of chloroform and methanol 2:1 followed by an extraction of the water-soluble fractions and evaporation of the solvent. The membrane phase was obtained according to Xu et al. (Xu, 1998) and extracted with chloroform to obtain membrane lipids. All obtained samples were analyzed by the thin layer chromatography TLC on silica gel plates 60 using a mixture of chloroform and methanol 95:5 as the mobile phase and N-oleoyl-dopamine as the standard. The Retention Factor (Rf) for the N-oleoyl-dopamine standard was equal to 0.24-0.26. At the same level (the same Rf=0.24-0.29) there were bands corresponding to N-oleoyl-dopamine in the biological samples, that is after systemic N-oleoyl-dopamine injection, but not in the control samples obtained with no N-oleoyl-dopamine injection.

Another data set concerns rat. The following applies: cited from earlier work.
The conditions of data set [4]: after injection into the carotid artery; cited from earlier work.
The test system of data set [5] is anesthetized, paralyzed and artificially ventilated Wistar rats. As to the kind of experiment: Respiratory response to hypoxia in the anesthetized rat (integrated phrenic nerve activity). The data set is classed as in vivo. On the procedure: The study was performed in anesthetized, paralyzed and artificially ventilated Wistar rats. During the experiments, the integrated activity of the phrenic nerve was recorded. This activity reflects the frequency and tidal volume; their product represents the index of minute lung ventilation. The experimental protocol consisted of control recordings for two levels of the hypoxic stimulus: 14% and 11% O2 in N2. Afterwards, N-oleoyl-dopamine in a dose of 20 mg/kg was given and the recordings were repeated. Additionally, experiments with two dopamine receptor antagonists were performed: first, with the penetrating through the blood-brain barrier D2 dopamine receptor antagonist haloperidol and second, with the non-penetrating through the blood-brain-barrier domperidone. In these studies, after the control recordings, haloperidol (in a dose of 3 mg/kg) or domperidone (in a dose of 0.3 mg/kg) were administered and the recordings repeated. Then, N-oleoyl-dopamine was given and the recordings were repeated.

The mark [6] stands for this setting: N-oleoyl-dopamine given after domperidone 0.3 mg/kg.
Where [7] appears, read: N-oleoyl-dopamine given after haloperidol 3 mg/kg.

Each structure is given as a SMILES string.

Turning to `CCCCCCCC/C=C\CCCCCCCC(=O)NCCc1ccc(O)c(OC)c1` [3′-O-methyl-N-oleoyl-dopamine], the “level of muscle tone elevated by reserpine (force needed for flexion and extension of the ankle joint)” value in data set [1] (10 mg/kg, FIG. 1) is given as “decreases nearly down to the control level”. The “muscle rigidity in rats showing symptoms of Parkinson's disease” value in data set [1] (reserpine 2.5 mg/kg i.p. + α-MT 250 mg/kg i.p., compound 10 mg/kg) is “abolished muscle rigidity”. The “peak respiratory response after administration” value with awake Wistar rats (8% hypoxia, 40 mg/kg i.p.) is 1939±255 ml/min/kg body weight. For the same compound, the “resting ventilation during breathing with atmospheric oxygen after administration” value with awake Wistar rats (normoxia, 40 mg/kg i.p.) is 779.7±148.7 ml/min/kg body weight.
Regarding `CCCCCCCC/C=C\CCCCCCCC(=O)NCCc1ccc(O)c(O)c1` [N-oleoyl-dopamine], in data set [2], the “O-methylation by catechol-O-methyltransferase” value is on record as “undergoes the O-methylation”. Moreover, the “penetration into the brain tissue” value in data set [3] is “penetrates”. Also, in the data set on rat, the locomotive activity entry was “increases the locomotive activity”. The “peak respiratory response after administration” value in the data set with awake Wistar rats (8% hypoxia, 40 mg/kg i.p.) amounted to 1338.3±49.5 ml/min/kg body weight. Moreover, the “minute lung ventilation after administration of haloperidol and N-oleoyl-dopamine” value in the data set on awake Wistar rats (8% hypoxia) is recorded as 1947.3±66.5 ml/min/kg body weight. The “peak respiratory response after administration” value with awake Wistar rats (12% hypoxia, 40 mg/kg i.p.) turned out to be 856.6±73.7 ml/min/kg body weight. Further, the “minute lung ventilation after administration of haloperidol and N-oleoyl-dopamine” value in the data set on awake Wistar rats (12% hypoxia) came to 1484.0±92.3 ml/min/kg body weight. For the same compound, the “peak respiratory response after N-oleoyl-dopamine under blockade of the dopaminergic system” value in the data set on awake Wistar rats (haloperidol 0.9 mg/kg i.p. prior to N-oleoyl-dopamine) is “only a slight reduction”. In addition, the “ability to penetrate into the brain” value in data set [4] is “ability to penetrate into the brain”. In data set [5] (setting [6]), the “respiration in the inhibitory phase” value is “still diminished the respiration” and the “response to hypoxia in the stimulatory phase” value is listed as “did not change the response to hypoxia”. For the same compound, in data set [5] (setting [7]), the “respiratory response in the first stimulatory phase” value is listed as “did not restore the respiratory response” and the “respiratory response in the second inhibitory phase” value was “still diminished it”.
With `O=C(CCCN1CCC(O)(c2ccc(Cl)cc2)CC1)c1ccc(F)cc1` [haloperidol, reference compound], the “respiration in the second inhibitory phase of the hypoxic response” value in data set [5] (drug alone) is recorded as “diminished the respiration”.

Source of the values: patent US8697898B2, “Medical application of lipid derivatives of dopamine and the methods of their production” (Instytut Medycyny Doswiadczalnej i Klinicznej im. M. …, priority 2011, dated 2014).
